#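 Interpolation was linear, between the two tested concentrations surrounding the appropriate level; five concentrations were tested over 48 hours in 96-well plates. At the GI50, growth is halved.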 Activity calls are given as the source filed them. Rule as the data show it: active = GI50 up to about 1.1 µM and inactive = higher.
# How the values were obtained:
# Assay in all cases: DTP human tumour cell line panel, 48 h
# OVCAR-5 = system: OVCAR-5
# HCC 2998 = system: HCC 2998
# PC-3 = system: PC-3
# DU-145 = system: DU-145
# BT-549 = system: BT-549
# SK-MEL-5 = system: SK-MEL-5
# SF-539 = system: SF-539
# HL-60 = system: HL-60
# NCI-H226 = system: NCI-H226
# MOLT-4 = system: MOLT-4
# SN12C = system: SN12C
# Malme-3M = system: Malme-3M
# KM12 = system: KM12
# TK-10 = system: TK-10
# A549 = system: A549
# SNB-19 = system: SNB-19
# UACC-62 = system: UACC-62
# MDA-MB-231 = system: MDA-MB-231
# UO-31 = system: UO-31
# NCI-H23 = system: NCI-H23
# MDA-N = system: MDA-N
# 786-0 = system: 786-0
# COLO 205 = system: COLO 205
# T47D = system: T47D
# OVCAR-3 = system: OVCAR-3
# OVCAR-8 = system: OVCAR-8
# CCRF-CEM = system: CCRF-CEM
# RXF 393 = system: RXF 393
# SF-295 = system: SF-295
# LOX IMVI = system: LOX IMVI
# HCT-116 = system: HCT-116
# NCI-H460 = system: NCI-H460
# MCF7 = system: MCF7
# Hs-578T = system: Hs-578T
# ACHN = system: ACHN
# SK-MEL-28 = system: SK-MEL-28
# EKVX = system: EKVX
# IGROV-1 = system: IGROV-1
# MDA-MB-435 = system: MDA-MB-435
# A498 = system: A498
# SW-620 = system: SW-620
# HCT-15 = system: HCT-15
# U-251 = system: U-251
# K562 = system: K562
# M14 = system: M14
# CAKI-1 = system: CAKI-1
# SK-MEL-2 = system: SK-MEL-2
# NCI/ADR-RES = system: NCI/ADR-RES
# HT-29 = system: HT-29
# UACC-257 = system: UACC-257
# SK-OV-3 = system: SK-OV-3
# SF-268 = system: SF-268
# SNB-75 = system: SNB-75
# HOP-92 = system: HOP-92
# OVCAR-4 = system: OVCAR-4
# SR = system: SR
# HOP-62 = system: HOP-62
# NCI-H522 = system: NCI-H522
# RPMI-8226 = system: RPMI-8226
smiles,measurement,setting,value
CC1C2(C)OCC(C#N)(C(=N)O2)C1(C#N)C#N (stereo not drawn),GI50,OVCAR-5,29.1 µM (inactive)
same,GI50,HCC 2998,> 10 µM (inactive)
same,GI50,PC-3,24.2 µM (inactive)
same,GI50,DU-145,22.5 µM (inactive)
same,GI50,BT-549,35.2 µM (inactive)
same,GI50,SK-MEL-5,11.3 µM (inactive)
same,GI50,SF-539,23.1 µM (inactive)
same,GI50,HL-60,15.6 µM (inactive)
same,GI50,NCI-H226,67 µM (inactive)
same,GI50,MOLT-4,27.3 µM (inactive)
same,GI50,SN12C,15.7 µM (inactive)
same,GI50,Malme-3M,18.5 µM (inactive)
same,GI50,KM12,36.2 µM (inactive)
same,GI50,TK-10,37.1 µM (inactive)
same,GI50,A549,> 100 µM (inactive)
same,GI50,SNB-19,43.5 µM (inactive)
same,GI50,UACC-62,24.9 µM (inactive)
same,GI50,MDA-MB-231,17.9 µM (inactive)
same,GI50,UO-31,36.2 µM (inactive)
same,GI50,NCI-H23,29.3 µM (inactive)
same,GI50,MDA-N,18.3 µM (inactive)
same,GI50,786-0,21.3 µM (inactive)
same,GI50,COLO 205,14.7 µM (inactive)
same,GI50,T47D,12.6 µM (inactive)
same,GI50,OVCAR-3,15.1 µM (inactive)
same,GI50,OVCAR-8,23.9 µM (inactive)
same,GI50,CCRF-CEM,22.8 µM (inactive)
same,GI50,RXF 393,27.4 µM (inactive)
same,GI50,SF-295,78 µM (inactive)
same,GI50,LOX IMVI,17.7 µM (inactive)
same,GI50,HCT-116,18.3 µM (inactive)
same,GI50,NCI-H460,18.5 µM (inactive)
same,GI50,MCF7,20.7 µM (inactive)
same,GI50,Hs-578T,17.9 µM (inactive)
same,GI50,ACHN,36.5 µM (inactive)
same,GI50,SK-MEL-28,24.8 µM (inactive)
same,GI50,EKVX,19.1 µM (inactive)
same,GI50,IGROV-1,33 µM (inactive)
same,GI50,MDA-MB-435,28.6 µM (inactive)
same,GI50,A498,88.7 µM (inactive)
same,GI50,SW-620,25.9 µM (inactive)
same,GI50,HCT-15,13.5 µM
same,GI50,U-251,16.3 µM (inactive)
same,GI50,K562,32.8 µM (inactive)
same,GI50,M14,16.1 µM (inactive)
same,GI50,CAKI-1,12.5 µM (inactive)
same,GI50,SK-MEL-2,14.4 µM (inactive)
same,GI50,NCI/ADR-RES,41.2 µM (inactive)
same,GI50,HT-29,15.8 µM (inactive)
same,GI50,UACC-257,23.9 µM (inactive)
same,GI50,SK-OV-3,> 100 µM (inactive)
same,GI50,SF-268,22.8 µM (inactive)
same,GI50,SNB-75,96.8 µM (inactive)
same,GI50,HOP-92,21.9 µM (inactive)
COc1ccc(CCCNC(=O)Cc2cc(OC)c(OC)cc2CO)cc1OC,GI50,OVCAR-5,> 100 µM (inactive)
same,GI50,HCC 2998,> 100 µM (inactive)
same,GI50,PC-3,> 100 µM (inactive)
same,GI50,DU-145,> 100 µM (inactive)
same,GI50,BT-549,> 100 µM (inactive)
same,GI50,SK-MEL-5,> 100 µM (inactive)
same,GI50,HL-60,> 100 µM (inactive)
same,GI50,NCI-H226,> 100 µM (inactive)
same,GI50,MOLT-4,> 100 µM (inactive)
same,GI50,OVCAR-4,> 100 µM (inactive)
same,GI50,SN12C,> 100 µM (inactive)
same,GI50,Malme-3M,> 100 µM (inactive)
same,GI50,KM12,> 100 µM (inactive)
same,GI50,TK-10,> 100 µM (inactive)
same,GI50,A549,> 100 µM (inactive)
same,GI50,SNB-19,> 100 µM (inactive)
same,GI50,UACC-62,> 100 µM (inactive)
same,GI50,MDA-MB-231,> 100 µM (inactive)
same,GI50,UO-31,> 100 µM (inactive)
same,GI50,NCI-H23,75 µM (inactive)
same,GI50,MDA-N,> 100 µM (inactive)
same,GI50,786-0,> 100 µM (inactive)
same,GI50,COLO 205,> 100 µM (inactive)
same,GI50,T47D,23.3 µM (inactive)
same,GI50,OVCAR-3,> 100 µM (inactive)
same,GI50,OVCAR-8,> 100 µM (inactive)
same,GI50,CCRF-CEM,> 100 µM (inactive)
same,GI50,LOX IMVI,> 100 µM (inactive)
same,GI50,HCT-116,> 100 µM (inactive)
same,GI50,NCI-H460,> 100 µM (inactive)
same,GI50,Hs-578T,> 100 µM (inactive)
same,GI50,ACHN,> 100 µM (inactive)
same,GI50,SK-MEL-28,> 100 µM (inactive)
same,GI50,EKVX,> 100 µM (inactive)
same,GI50,IGROV-1,> 100 µM (inactive)
same,GI50,MDA-MB-435,> 100 µM (inactive)
same,GI50,A498,> 100 µM (inactive)
same,GI50,SW-620,> 100 µM (inactive)
same,GI50,HCT-15,> 100 µM
same,GI50,U-251,> 100 µM (inactive)
same,GI50,K562,> 100 µM (inactive)
same,GI50,SR,> 100 µM (inactive)
same,GI50,HOP-62,> 100 µM (inactive)
same,GI50,M14,> 100 µM (inactive)
same,GI50,CAKI-1,> 100 µM (inactive)
same,GI50,SK-MEL-2,> 100 µM (inactive)
same,GI50,NCI/ADR-RES,> 100 µM (inactive)
same,GI50,HT-29,> 100 µM (inactive)
same,GI50,UACC-257,> 100 µM (inactive)
same,GI50,SNB-75,> 100 µM (inactive)
same,GI50,HOP-92,> 100 µM (inactive)
CCCC(=O)NC(Nc1ccc(S(=O)(=O)Nc2ccc(OC)nn2)cc1)(C(F)(F)F)C(F)(F)F,GI50,OVCAR-5,> 100 µM (inactive)
same,GI50,HCC 2998,> 100 µM (inactive)
same,GI50,PC-3,> 100 µM (inactive)
same,GI50,DU-145,> 100 µM (inactive)
same,GI50,BT-549,> 100 µM (inactive)
same,GI50,SK-MEL-5,> 100 µM (inactive)
same,GI50,SF-539,> 100 µM (inactive)
same,GI50,HL-60,> 100 µM (inactive)
same,GI50,NCI-H226,> 100 µM (inactive)
same,GI50,MOLT-4,> 100 µM (inactive)
same,GI50,OVCAR-4,> 100 µM (inactive)
same,GI50,SN12C,> 100 µM (inactive)
same,GI50,Malme-3M,> 100 µM (inactive)
same,GI50,KM12,> 100 µM (inactive)
same,GI50,TK-10,> 100 µM (inactive)
same,GI50,A549,> 100 µM (inactive)
same,GI50,SNB-19,> 100 µM (inactive)
same,GI50,UACC-62,> 100 µM (inactive)
same,GI50,NCI-H522,> 100 µM (inactive)
same,GI50,MDA-MB-231,> 100 µM (inactive)
same,GI50,UO-31,> 100 µM (inactive)
same,GI50,NCI-H23,> 100 µM (inactive)
same,GI50,MDA-N,> 100 µM (inactive)
same,GI50,786-0,> 100 µM (inactive)
same,GI50,COLO 205,> 100 µM (inactive)
same,GI50,T47D,> 100 µM (inactive)
same,GI50,OVCAR-3,> 100 µM (inactive)
same,GI50,OVCAR-8,> 100 µM (inactive)
same,GI50,CCRF-CEM,> 100 µM (inactive)
same,GI50,RXF 393,> 100 µM (inactive)
same,GI50,SF-295,> 100 µM (inactive)
same,GI50,LOX IMVI,> 100 µM (inactive)
same,GI50,HCT-116,> 100 µM (inactive)
same,GI50,NCI-H460,> 100 µM (inactive)
same,GI50,Hs-578T,> 100 µM (inactive)
same,GI50,ACHN,> 100 µM (inactive)
same,GI50,SK-MEL-28,> 100 µM (inactive)
same,GI50,EKVX,> 100 µM (inactive)
same,GI50,IGROV-1,> 100 µM (inactive)
same,GI50,MDA-MB-435,> 100 µM (inactive)
same,GI50,A498,87.9 µM (inactive)
same,GI50,SW-620,> 100 µM (inactive)
same,GI50,HCT-15,> 100 µM
same,GI50,U-251,> 100 µM (inactive)
same,GI50,K562,> 100 µM (inactive)
same,GI50,SR,> 100 µM (inactive)
same,GI50,HOP-62,> 100 µM (inactive)
same,GI50,M14,> 100 µM (inactive)
same,GI50,CAKI-1,> 100 µM (inactive)
same,GI50,RPMI-8226,> 100 µM (inactive)
same,GI50,SK-MEL-2,> 100 µM (inactive)
same,GI50,NCI/ADR-RES,> 100 µM (inactive)
same,GI50,HT-29,> 100 µM (inactive)
same,GI50,UACC-257,> 100 µM (inactive)
same,GI50,SK-OV-3,> 100 µM (inactive)
same,GI50,SF-268,> 100 µM (inactive)
same,GI50,SNB-75,> 100 µM (inactive)
same,GI50,HOP-92,> 100 µM (inactive)

# From ChEMBL document CHEMBL1201862, “PubChem BioAssay data set” (2004)
